In patent US9376371B2, “Triphenylamine derivative, method for manufacturing the same, and electrophotographic photosensitive member” (KYOCERA DOCUMENT SOLUTIONS INC., priority 2013, dated 2016):

Tests used:
[1] = Evaluation of solubility in tetrahydrofuran; format: physicochemical; settings: 25° C., {100/(100+X)}×100
Protocol: The thus obtained triphenylamine derivatives HTM-1 to HTM-14 each as the hole transport material were evaluated for the solubility. A small amount of tetrahydrofuran was added to 100 mg of each triphenylamine derivative under the temperature of 25° C. Then, the resulting sample was vibrated and left to stand. This process was repeated to measure the added amount X (mg) of tetrahydrofuran dissolved in the triphenylamine derivative to saturation. With the added amount X, the equation below gives the solubility. Solubility (%)={100/(100+X)}×100 <Evaluation of Ionization Potentials>

[2] = Evaluation of ionization potential (AC-1 ultraviolet photoelectron analyzer); format: physicochemical; settings: atmosphere type ultraviolet photoelectron analyzing apparatus AC-1
Source text: The respective triphenylamine derivatives HTM-1 to HTM-14 were each evaluated for the ionization potential. An atmosphere type ultraviolet photoelectron analyzing apparatus (AC-1 manufactured by Riken Keiki Co., Ltd.) was used to measure the ionization potential.

THF Solubility [1] [%] | Ionization Potential [2] [eV] | Structure (SMILES)
6.3 | 5.43 | COc1ccccc1N(c1ccc(/C=C/C=C/c2ccccc2)cc1)c1ccc(/C=C/C=C/c2ccccc2)cc1 [HTM-14]
22.8 | 5.39 | CCOc1cc(C)ccc1N(c1ccc(/C=C/C=C/c2ccccc2)cc1)c1ccc(/C=C/C=C/c2ccccc2)cc1 [HTM-4]
25.8 | 5.39 | CCOc1ccc(N(c2ccc(/C=C/C=C/c3ccccc3)cc2)c2ccc(/C=C/C=C/c3ccccc3)cc2)c(C)c1 [HTM-7]
23.5 | 5.37 | CCOc1cccc(C)c1N(c1ccc(/C=C/C=C/c2ccccc2)cc1)c1ccc(/C=C/C=C/c2ccccc2)cc1 [HTM-2]
6.1 | 5.45 | COc1cccc(N(c2ccc(/C=C/C=C/c3ccccc3)cc2)c2ccc(/C=C/C=C/c3ccccc3)cc2)c1 [HTM-13]
25.0 | 5.38 | CCOc1ccccc1N(c1ccc(/C=C/C=C/c2ccccc2)cc1)c1ccc(/C=C/C=C/c2ccccc2)cc1 [HTM-1]
24.1 | 5.39 | CCCCOc1ccccc1N(c1ccc(/C=C/C=C/c2ccccc2)cc1)c1ccc(/C=C/C=C/c2ccccc2)cc1 [HTM-3]
20.0 | 5.33 | COc1ccc(N(c2ccc(/C=C/C=C/c3ccccc3)cc2)c2ccc(/C=C/C=C/c3ccccc3)cc2)c(OC)c1 [HTM-5]

Second part, the compound before the results:

Structure (SMILES) | THF Solubility [1] [%] | Ionization Potential [2] [eV]
COc1ccc(N(c2ccc(/C=C/C=C/c3ccccc3)cc2)c2ccc(/C=C/C=C/c3ccccc3)cc2)cc1 [HTM-12] | 7.5 | 5.43
C(/C=C/c1ccc(N(c2ccc(/C=C/C=C/c3ccccc3)cc2)c2ccc(Oc3ccccc3)cc2)cc1)=C\c1ccccc1 [HTM-8] | 21.0 | 5.48
CCCCc1ccc(N(c2ccc(/C=C/C=C/c3ccccc3)cc2)c2ccc(/C=C/C=C/c3ccccc3)cc2)cc1 [HTM-10] | 17.8 | 5.42
COc1ccc(N(c2ccc(/C=C/C=C/c3ccccc3)cc2)c2ccc(/C=C/C=C/c3ccccc3)cc2)c(C)c1 [HTM-6] | 24.5 | 5.38
Cc1cccc(C)c1N(c1ccc(/C=C/C=C/c2ccccc2)cc1)c1ccc(/C=C/C=C/c2ccccc2)cc1 [HTM-11] | 11.4 | 5.55
Cc1ccc(N(c2ccc(/C=C/C=C/c3ccccc3)cc2)c2ccc(/C=C/C=C/c3ccccc3)cc2)c(C)c1 [HTM-9] | 12.3 | 5.46
